Measurements taken from US4698306A, “Process for producing peroxidase” (Takara Shuzo Co., Ltd., priority 1984, dated 1987).
Where two headings read alike, the source gives them in different places.

What was measured:
[1] = molecular target: T1, peroxidase (Coprinopsis cinerea, UniProt P28314); test: Effects of inhibitors, metal ions and metal chelating agents on peroxidase activity; type: biochemical, Coprinus macrorhizus K-1330; conditions: for activity at 1000 µM / Relative activity: 1 min; for activity at 1000 µM: read-out: Relative activity; for Relative activity: peroxidase, 1000 µM
T1 sequence (P28314 21-363): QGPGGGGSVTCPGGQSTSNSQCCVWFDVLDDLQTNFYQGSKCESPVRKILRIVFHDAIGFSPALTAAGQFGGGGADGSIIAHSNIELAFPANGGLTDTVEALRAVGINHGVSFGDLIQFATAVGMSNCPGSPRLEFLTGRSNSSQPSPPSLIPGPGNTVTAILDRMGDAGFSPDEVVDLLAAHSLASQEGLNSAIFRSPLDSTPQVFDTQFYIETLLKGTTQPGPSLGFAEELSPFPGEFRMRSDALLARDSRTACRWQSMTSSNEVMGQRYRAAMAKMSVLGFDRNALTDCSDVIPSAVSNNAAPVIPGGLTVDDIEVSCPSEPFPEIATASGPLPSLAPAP

[2] = molecular target: T1, peroxidase; test: Specificity for hydrogen donors prepared by combining 4-AA with various compounds; type: biochemical, Coprinus macrorhizus K-1330; conditions: hydrogen donor combined with 4-AA, phenol = 100
[3] = molecular target: T1, peroxidase; test: Specificity for hydrogen donors prepared by combining MBTH with dimethylaniline, diethylaniline or EHMT; type: biochemical, Coprinus macrorhizus K-1330; conditions: hydrogen donor combined with MBTH; measured at 590 nm; 4-AA/phenol = 100
[4] = test system: Coprinus macrorhizus K-1330 (FERM BP-648); test: Effect of iron salts on the production of peroxidase; type: cell-based; conditions: culture filtrate, 26° C., 5 to 10 days
[5] = additive 1 mM, no addition = 100

O[C@H](CS)[C@H](O)CS (racemic) [Dithiothreitol]
activity at 1000 µM [1, 5]: 95%

Oc1c(Cl)cc(Cl)cc1Cl [2,4,6-Trichlorophenol]
Relative activity ([2]; measured at 520 nm): 96%

Oc1ccc(Br)cc1Br [2,4-Dibromophenol]
Relative activity ([2]; measured at 520 nm): 47%

Oc1ccc(Cl)cc1Cl [2,4-Dichlorophenol]
Relative activity ([2]; measured at 520 nm): 115%

Oc1c(Cl)cccc1Cl [2,6-Dichlorophenol]
Relative activity ([2]; measured at 520 nm): 154%

[Ba+2].[Cl-].[Cl-] [BaCl2]
Relative activity [1]: 96%

[Cl-].[Cl-].[Co+2] [CoCl2]
Relative activity [1]: 98%

O=S(=O)([O-])[O-].[Cu+2] [CuSO4]
Relative activity [1]: 105%

CCN(CC)c1ccccc1 [Diethylaniline]
Relative activity [3]: 49%
Relative activity ([2]; measured at 550 nm): 49%

CN(C)c1ccccc1 [Dimethylaniline]
Relative activity [3]: 50%
Relative activity ([2]; measured at 550 nm): 21%

O=C(O)CN(CCN(CC(=O)O)CC(=O)O)CC(=O)O [EDTA]
activity at 1000 µM [1]: 97%

CCN(CCO)c1cccc(C)c1 [EHMT, N-ethyl-N-hydroxyethyl-m-toluidine]
Relative activity [3]: 41%
Relative activity ([2]; measured at 550 nm): 62%

[Cl][Fe]([Cl])[Cl] [FeCl3]
Relative activity [1]: 107%

O.O.O.O.O.O.O.O=S(=O)([O-])[O-].[Fe+2] [FeSO4.7H2 O]
Peroxidase activity (maximum activity) ([4]; 0.04 % FeSO4.7H2O added to medium): 28.0 unit/ml
Peroxidase activity (maximum activity) ([4]; 0.08 % FeSO4.7H2O added to medium): 46.4 unit/ml
Peroxidase activity (maximum activity) ([4]; 0.12 % FeSO4.7H2O added to medium): 75.5 unit/ml
Peroxidase activity (maximum activity) ([4]; 0.16 % FeSO4.7H2O added to medium): 80.2 unit/ml
Peroxidase activity (maximum activity) ([4]; 0.20 % FeSO4.7H2O added to medium): 66.0 unit/ml
Peroxidase activity (maximum activity) ([4]; 0.24 % FeSO4.7H2O added to medium): 36.8 unit/ml
Peroxidase activity (maximum activity) ([4]; 0.32 % FeSO4.7H2O added to medium): 17.0 unit/ml

[Cl][Hg][Cl] [HgCl2]
Inhibition of the enzyme [1]: inhibited
Relative activity [1]: 6%

Oc1ccc(O)cc1 [Hydroquinone]
Relative activity ([2]; measured at 500 nm): 10%

O=C(O)CI [Iodoacetic acid]
activity at 1000 µM [1]: 100%

N[C@@H](CS)C(=O)O [L-cysteine]
activity at 1000 µM [1, 5]: 105%

[Cl][Mn][Cl] [MnCl2]
Relative activity [1]: 86%

O=S(=O)([O-])[O-].[Ni+2] [NiSO4]
Relative activity [1]: 92%

O=C(O)c1cc[c]([Hg][Cl])cc1 [PCMB, p-Chloromercuribenzoic acid]
Relative activity [1]: 98%

O=S(=O)(F)Cc1ccccc1 [PMSF, Phenylmethylsulfonyl fluoride]
Relative activity [1]: 98%

Oc1ccccc1 [Phenol]
Relative activity ([2]; measured at 500 nm): 100%

Oc1ccccc1O [Pyrocatechol]
Relative activity ([2]; measured at 500 nm): 58%

Oc1cccc(O)c1 [Resorcinol]
Relative activity ([2]; measured at 500 nm): 10%

[Cl][Sn][Cl] [SnCl2]
Relative activity [1]: 92%

[N-]=[N+]=[N-] [Sodium azide]
Inhibition of the enzyme [1]: inhibited

[F-].[Na+] [Sodium fluoride]
Relative activity [1]: 103%

NC(N)=S [Thiourea]
Inhibition of the enzyme [1]: inhibited
activity at 1000 µM [1]: 57%

[Cl-].[Cl-].[Zn+2] [ZnCl2]
Relative activity [1]: 85%

c1cnc2c(c1)ccc1cccnc12 [o-Phenanthroline]
activity at 1000 µM [1, 5]: 88%

c1ccc(-c2ccccn2)nc1 [α,α'-Dipyridyl]
activity at 1000 µM [1]: 103%

Oc1cccc2ccccc12 [α-Naphthol]
Relative activity ([2]; measured at 500 nm): 18%
